Measured values from US12012574B2, “Process for removing dry surface biofilm” (Whiteley Corporation Pty. Ltd., priority 2013, dated 2024).

Experiments:
[1] = system: dry surface biofilm of S. aureus; assay: Kill of organisms within dry surface biofilm (Example 18); assay type: cell-based, Staphylococcus aureus
planktonic S. aureus = assay: Disinfectant efficacy against planktonic bacteria (Example 17); assay type: cell-based, Staphylococcus aureus; settings: dirty conditions (5% bovine calf serum), 5 minutes contact time
[2] = system: 12 day dry surface biofilm; assay: Protein removal from dry surface biofilm coated coupons (BCA assay); assay type: cell-based, Staphylococcus aureus
Method: 12 day biofilm was grown on PET coupons following the methodology of Example 8. The rods containing the biofilm coated coupons were then removed and any loosely bound biofilm washed off with Milli-Q water as described in Example 8.
One rod holding three dry surface biofilm coated coupons was then placed into 30 ml of a solution of Example 9 (17 g/litre) for 10 minutes. A second rod was placed into 30 ml of a solution of Matrix (1:50 dilution), and a third rod placed into 30 ml Milli-Q water to serve as a positive control. An additional rod, holding 3 uncoated coupons was sterilized and used as a negative control.
After 10 minutes, each rod was placed into 30 ml of 1M sodium hydroxide solution to elute off all remaining protein. Aliquots from each solution were then taken and tested for protein using a Bicinchroninic Acid (BCA) assay, using a micro BCA test kit (Sigma Aldrich).
In order to perform the BCA assay, a series of standard solutions of bovine serum albumin were prepared to produce a standard curve. […] The samples were then incubated for 60 minutes at 60° C., and the absorbance at 562 nm read using a spectrophotometer (see Table 17). […]

[3] = system: 12 day dry surface biofilm (Staphylococcus aureus ATCC 25923); assay: Initial screening using TOC to assess removal of dry surface biofilm; assay type: cell-based; settings: for TOC Coupons with Biofilm: biofilm coated Pyrex coupons after cleaning, Table 14 dilution; for TOC due to biofilm: biofilm coupon TOC minus blank coupon TOC; for TOC Blank coupons: fresh clean coupons exposed to test product at Table 14 dilution; for % Reduction (TOC): relative to negative control (Milli-Q water)
[4] = system: Staphylococcus aureus dry surface biofilm; settings: solution containing 20,000 ppm available chlorine; cited from earlier work
[5] = system: 12 day dry surface biofilm; assay: Bacterial reduction from 12 day dry surface biofilm, clean and dirty conditions (Examples 15, 16); assay type: cell-based, Staphylococcus aureus; settings: for Log reduction: 5 minute contact time
Method: The bacterial reductions obtained from a 12 day dry surface biofilm were assessed under clean conditions using Example 9, Chlorclean tablets and a generic SDIC tablet
Each test product was dissolved in water.
Coupons coated in 12-day dry surface biofilm were produced as per Example 8. 2 ml of each test solution, followed by 2 ml of water were added to the wells in a tissue culture plate.
After a 5 minute contact time, coupons were removed from the disinfectant solutions, rinsed twice using 30 ml phosphate buffered saline for 5 seconds, and then placed into 5 ml tubes containing 2 ml of a neutralizer solution comprising 6% Tween 80 plus 1% sodium thiosulfate plus 5% bovine serum plus 10% Bovine Serum Albumin.
The tubes were sonicated for 20 minutes and then vortexed for 2 minutes. Serial 10-fold dilutions were then made and 100 ul of neat, 10^−1, 10^−2, 10^−3 and 10^−4 dilutions were plated on Horse Blood Agar plates. The plates were incubated at 37° C. overnight and then enumerated.
Control coupons, not exposed to disinfectant were similarly worked up to allow the log reductions to be calculated
The bacterial reductions obtained from a 12 day dry surface biofilm were assessed under dirty conditions using Example 9, Chlorclean tablets and a generic SDIC tablet. Each test product was dissolved in artificial hard water containing 340 ppm CaCO3 to which was added 5% Bovine Calf Serum.
Coupons coated in 12-day dry surface biofilm were produced as per Example 8. 2 ml of each test solution, followed by 2 ml of hard water to which was added 5% bovine calf serum were added to the wells in a tissue culture plate.
Control coupons, not exposed to disinfectant were similarly worked up to allow the log reductions to be calculated.

[6] = absence of biological soil, five minutes contact time
[7] = dirty conditions (presence of an organic soil), 5 minutes contact time

SMILES | log10 reduction of biofilm viability [1, 6] | log10 reduction of biofilm viability [1, 7] | log10 reduction / activity (planktonic S. aureus) | Percentage protein reduction ([2]; Example 13: 10 minute contact time, calculated from positive control (Milli-Q water)) | TOC Coupons with Biofilm [3] [µg] | TOC due to biofilm [3] [µg] | TOC Blank coupons [3] [µg] | % Reduction (TOC) [3] [%] | survival after exposure [4] | log10 reduction of biofilm viability ([1]; absence of biological soil, five minutes contact time, listed as SIDC) [log10] | Percentage reduction ([2]; Example 14: protein, shorter contact time (not given)) | Neutraliser control ([5]; clean conditions) | Log reduction ([5]; clean conditions) [log] | Neutraliser control ([5]; dirty conditions) | Log reduction ([5]; dirty conditions: hard water 340 ppm CaCO3 with 5% Bovine Calf Serum) [log]
OO [hydrogen peroxide] | zero and no effect | zero | completely deactivated |  |  |  |  |  |  |  |  |  |  |  | 
OCl [sodium hypochlorite, Sodium hypochlorite] |  |  |  | 11.50 | 1.87 | 1.53 | 0.34 | 79 | still showing survivors |  |  |  |  |  | 
[Na+].[OH-] [1M NaOH, sodium hydroxide] |  |  |  |  | 0.16 | -0.01 | 0.17 | 100 |  |  |  |  |  |  | 
O=c1nc([O-])n(Cl)c(=O)n1Cl.[Na+] [SDIC, sodium diisocyanurate] | 2.85 log10 | 0.03 log10 |  |  |  |  |  |  |  | 3 | 17.65 | 0.045 | 6.55 | 0.018 | 0.007
